We go through two molecules from publication PMC11239005, “Preclinical studies of RA475, a guanidine-substituted spirocyclic candidate RPN13/ADRM1 inhibitor for treatment of ovarian cancer” (PLOS ONE, 2024).

Converted amounts (≈) assume the structure as drawn. Read-outs that look alike come from different tables or passages of the source. Bounds are passed on as bounds.

Series [1] concerns Hep3B. Description: MTT cytotoxicity assay, Hep3B. The format is cell-based. Conditions: Homo sapiens, 72 h. The protocol: (§1) All cell lines were obtained from the American Type Culture Collection (ATCC) and cultured in the specified medium supplemented with 10% fetal bovine serum, 100 IU/mL penicillin, and 100 μg/mL streptomycin at 37°C in a humidified 5% CO2/95% air incubator. Synthesis of new compounds is described in S1 File, and >95% purity of RA475, Up284 and its analogs were confirmed by NMR and MS. To assess drug cytotoxicity, cells were seeded at 2,500 cells/well (10,000 cells/well for MM lines) in 100 μL medium in 96-well plate as triplicates and after 24 h treated with compounds for a further 72 h. To assess cytotoxicity, the cells were incubated for 2 h at 37°C according to the manufacturer’s protocol with the Thiazolyl Blue Tetrazolium Bromide (20 μL/well of 5 mg/mL stock solution in water) (Sigma, M5655) and A570 measured using a Benchmark Plus microplate spectrophotometer (BIO-RAD). IC50 was estimated using Graphpad Prism 7 software.
Background: Tetrazolium dyes change colour on reduction, which living cells bring about.

The test system of series [2] is HCC1806. Nature of the series: MTT cytotoxicity assay, HCC1806. The format is cell-based. As to conditions: Homo sapiens, HCC1806, 72 h. The method, then:
as §1

The target in series [3] is hERG potassium channel (Homo sapiens, UniProt Q12809). Description: hERG Thallium Flux FLIPR-Based Assay. The protocol: Supplementary file pone.0305710.s008.tif: S8 Fig hERG inhibition in vitro. […] Concentration range of 0.023–50 μM (8 points, 3-fold serial dilutions) B) Dose-response curve for RA475. Concentration range of 0.045–100 μM (8 points, 3-fold serial dilutions). C) Dose-response curve for Up284. Concentration range of 0.045–100 μM (8 points, 3-fold serial dilutions). (TIF)

Series [4] has as its system LaPC4. Description: MTT cytotoxicity assay, LaPC4. It is filed as cell-based. As to conditions: Homo sapiens, LaPC4, 72 h. The protocol:
as §1

Series [5] relates to 4T1. Description: MTT cytotoxicity assay, 4T1. It is filed as cell-based. Conditions: Mus musculus, 4T1, 72 h. The protocol: as §1
Series [6] in a line: Kinetic aqueous solubility in PBS pH 7.4. It is filed as physicochemical. Conditions: 25 °C, pH 7.4, aqueous buffer, kinetic from dmso stock. The protocol: Kinetic solubility assays were performed according to Enamine’s aqueous solubility SOP. Briefly, using a 20 mM stock solution of the compound in 100% DMSO dilutions were prepared to a theoretical concentration of 400 μM in duplicates in phosphate-buffered saline pH 7.4 (138 mM NaCl, 2.7 mM KCl, 10 mM K-phosphate) with 2% final DMSO. The experimental compound dilutions in PBS were further allowed to equilibrate at 25°C on a thermostatic shaker for two hours and then filtered through HTS filter plates using a vacuum manifold. The filtrates of test compounds were diluted 2-fold with acetonitrile with 2% DMSO before measuring. In parallel, using a 20 mM stock solution of the compound in 100% DMSO dilutions were prepared to theoretical concentrations of 0 μM (blank), 10 μM, 25 μM, 50 μM, 100 μM, and 200 μM in 50% acetonitrile/PBS with 2% final DMSO to generate calibration curves. Ondansetron was used as a reference compound to control proper assay performance. 200 μL of each sample was transferred to a 96-well plate and measured in the 230–550 nm range with a 5 nm step. The concentrations of compounds in PBS filtrate are calculated using a dedicated Microsoft Excel calculation script. Proper absorbance wavelengths for calculations are selected for each compound manually based on absorbance maximums (absolute absorbance unit values for the minimum and maximum concentration points within the 0–3 OD range). Each final dataset is visually evaluated by the operator, and goodness of fit (R^2) is calculated for each calibration curve.

The subject of series [7] is high molecular weight polyubiquitinated proteins in OVCAR3 cells. Description: Anti-ubiquitin immunoblot, OVCAR3. The format is cell-based, human. As to conditions: Up284 0.5 μM, bortezomib 0.25 μM, ixazomib 0.25 μM, RA475 0.5 or 1 μM. The source says:
Cell lysate prepared in MPER (Pierce) from each sample was normalized by total protein concentration using the bicinchoninic acid assay and bovine serum albumin standards. Normalized samples were subjected to SDS-PAGE, transferred to PVDF membranes and analyzed by Western blot using antibodies specific to ubiquitin (P4D1, sc-8017, Santa Cruz), PARP (#9542, […]), actin (#66009, Protein Tech Group), Tubulin(#66031, Protein Tech Group), ADRM1/RPN13 (D9Z1U, #12019, Cell Signaling), USP14 (Cell Signal, # 8159), Annexin V (#559763, BD Pharmingen), and for secondary antibodies we utilized either horseradish peroxidase (HRP)-linked anti-mouse IgG or anti-rabbit IgG (GE Healthcare UK Ltd), HRP-linked streptavidin (N100, Thermo Fisher) at the recommended dilution (1:5000).
Accumulation of high molecular weight polyubiquitinated proteins (polyUb) is a classical phenomenon of proteasome function inhibition due to the stabilization of its substrate.
Fig 3 Impact of RA475 on proteasome function. […] Actin was used as loading control. […] C) 4T1 and HCC1806 cells stably expressing 4UbFL were treated with compounds at indicated doses for 4 h and imaged by IVIS200 after the addition of luciferin substrate (50 μL, 7mg/mL in PBS). D) Sub-confluent cultures of ES2 cells stably expressing 4UbFL were seeded at 10,000 cells/well in 96-well microtiter plates. At 18 h post transfection, cells were treated with compounds or vehicle (DMSO) at the doses indicated. After a 4 h incubation, the cells were lysed and the luciferase activity in each cell lysate was determined with a luciferase assay kit (Promega) according to the manufacturer’s instructions. Bioluminescence was measured by using a luminometer (Glomax Multidetection system, Promega) E) A patch was shaved of hair on one leg of CD-1 mice, and 10 μg 4UbFL plasmid in 20 μL of PBS was injected into the quadriceps femoralis muscle followed immediately by injection of the 2 Needle Array to 5 mm depth encompassing the injection site and square wave electroporation (ElectroSquarePorator 833, BTX-2 Needle array 5mm gap, Harvard apparatus) delivered as eight pulses at 106V for 20 ms with 200 ms intervals. One day post electroporation, mice were anesthetized with isoflurane, injected IP with luciferin (0.3 mg in 100 μL water) and optical imaging was performed to determine basal level luciferase expression. Images were acquired for 10 min with a Xenogen IVIS 200 (Caliper, Hopkinton, MA). Equally sized areas were analyzed using Living Image 2.20 software. Mice were imaged weekly during treatment. […]

The test system of series [8] is HFF. Description: MTT cytotoxicity assay, HFF. The format is cell-based. As to conditions: Homo sapiens, HFF (normal cells), 72 h. The method, then: as §1

hERG potassium channel, sequence (Q12809 whole entry): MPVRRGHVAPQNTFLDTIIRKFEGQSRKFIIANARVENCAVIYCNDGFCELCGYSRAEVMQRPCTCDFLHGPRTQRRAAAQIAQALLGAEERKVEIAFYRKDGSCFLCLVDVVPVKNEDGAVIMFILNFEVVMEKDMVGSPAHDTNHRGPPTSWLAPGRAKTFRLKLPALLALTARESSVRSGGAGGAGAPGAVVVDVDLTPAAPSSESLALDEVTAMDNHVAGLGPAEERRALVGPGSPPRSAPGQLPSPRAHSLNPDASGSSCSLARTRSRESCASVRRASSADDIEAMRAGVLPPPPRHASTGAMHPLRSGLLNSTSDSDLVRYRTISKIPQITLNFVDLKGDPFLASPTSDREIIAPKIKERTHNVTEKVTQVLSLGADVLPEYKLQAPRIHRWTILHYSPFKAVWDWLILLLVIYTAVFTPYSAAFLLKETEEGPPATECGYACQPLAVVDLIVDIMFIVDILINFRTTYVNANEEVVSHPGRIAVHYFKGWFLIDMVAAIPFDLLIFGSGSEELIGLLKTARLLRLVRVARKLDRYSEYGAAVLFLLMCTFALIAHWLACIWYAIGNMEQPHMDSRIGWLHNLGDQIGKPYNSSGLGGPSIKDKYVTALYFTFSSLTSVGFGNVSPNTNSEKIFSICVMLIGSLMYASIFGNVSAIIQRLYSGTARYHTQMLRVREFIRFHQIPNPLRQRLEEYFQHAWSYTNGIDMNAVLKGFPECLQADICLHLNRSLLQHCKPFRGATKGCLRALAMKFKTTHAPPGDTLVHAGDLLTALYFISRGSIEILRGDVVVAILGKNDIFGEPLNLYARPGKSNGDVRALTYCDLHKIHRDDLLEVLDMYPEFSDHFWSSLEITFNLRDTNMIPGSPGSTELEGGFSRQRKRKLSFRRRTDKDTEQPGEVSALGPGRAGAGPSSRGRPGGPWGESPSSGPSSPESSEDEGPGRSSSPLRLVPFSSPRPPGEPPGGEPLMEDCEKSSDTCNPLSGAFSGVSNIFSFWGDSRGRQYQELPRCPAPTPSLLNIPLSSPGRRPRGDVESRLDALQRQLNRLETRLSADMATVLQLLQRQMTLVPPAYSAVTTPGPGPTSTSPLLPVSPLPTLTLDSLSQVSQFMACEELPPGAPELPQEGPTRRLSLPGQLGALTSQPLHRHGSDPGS

Consider `Cl.Cl.N#Cc1ccc(/C=C2/C(=O)/C(=C/c3ccc(C#N)cc3)C23CCN(C(=N)N)CC3)cc1` [RA475, 1,3-bis((E)-4-cyanobenzylidene)-2-oxo-7-azaspiro[3.5]nonane-7-carboximidamide dihydrochloride], for which the IC50 in series [1] is 0.997 µM; in series [2], 0.113 µM; in series [3], 85.8 µM; in series [4] it was 2.03 µM; in series [5] it was 0.261 µM; in series [8], over 2.5 µM. Further, the solubility at 2 h was 136 µM in series [6] (kinetic, 2% DMSO, 25°C, 2 h, read-out: PBS solubility, pH 7.4, Incubation 1); 138 µM in series [6] (kinetic, 2% DMSO, 25°C, 2 h, read-out: PBS solubility, pH 7.4, Incubation 2); 137 µM in series [6] (kinetic, 2% DMSO, 25°C, 2 h, read-out: PBS solubility, pH 7.4, Mean). In addition, in series [7], the “forms of polyUb induced” value is recorded as “induced forms of polyUb that did not run into the gel”.

`N#Cc1ccc(/C=C2/C(=O)/C(=C/c3ccc(C#N)cc3)C23CCNCC3)cc1` [Up284, reference compound]: the IC50 in series [1] was 0.16 µM; in series [2], 0.14 µM; in series [3] it was 4.3 µM; in series [4], 0.51 µM; in series [5], 0.12 µM; in series [8] it was over 2.5 µM. Moreover, the solubility at 2 h in series [6] is 37 µM (≈ 13.5 µg/mL). Further, in series [7], the “forms of polyUb induced” value was “induced forms of polyUb that did not run into the gel”.

As usually defined, the IC50 is the midpoint of a concentration-inhibition curve. Higher therefore signals weaker potency in that assay. For orientation: solubility means how much of the substance goes into solution per volume.
